The results in this text go back to patent US20230064976A1, “AMORPHOUS FORM OR CRYSTALLINE FORM OF 2-INDOLINOLINOLOLYLSPIRONONE COMPOUNDS OR THEIR SALTS, SOLVENT COMPLEXES” (ASCENTAGE PHARMA (SUZHOU) CO., LTD., priority 2020, published 2023).

Common to all, as to format: physicochemical
The nature of data set [1]: Dynamic Vapour Sorption (DVS) hygroscopicity test. The conditions noted are these: for Weight Gain (80% RH): DVS. As for the experimental part: The instruments used and their parameters are as follows: XPRD—X-ray powder diffraction, using Bruker D8 Advance Diffractometer to characterize solids. Copper target wavelength is 1.54 Å Kα radiation (40 kV, 40 mA), 0-20 goniometer, Mo monochromator, Lynxeye detector, detection angle is 3-40° 2θ/3-30° 20, step size It is 0.02° 20, the speed is 0.2 s/step, and the detection sample weight is >2 mg. TGA—Thermo gravimetric analysis, using TA Instruments Q500 TGA, the detection sample size is 1 mg-10 mg, the common detection method is Hi-Res sensitivity 3.0, Ramp 10.00° C./min, res 5.0 to 150.00° C., Ramp 10.00° C./min to 350° C. DSC—differential scanning calorimetry analysis, using TA Instruments Q200 DSC, the detection sample weight is 0.5 mg-5 mg, the gas flow rate is 40 mL/min, the common detection method is Equilibrate, 20° C., Ramp 10° C./min to 280° C.-300° C. DVS—Dynamic Vapour Sorption analysis, the detection sample weight is 1 mg-10 mg, the gas flow rate is 10 mL/min, the common detection method is equilibrium at 25° C., humidity 0%, isothermal for 90 minutes, if the weight percentage is less than 0.0100, the next isothermal test is aborted for 15.00 minutes, and the 10% step humidity is 80.00% every 90 minutes. If the weight percentage is less than 0.0100, the next isothermal test is aborted for 15.00 minutes, and the step humidity is 10% to 0.00% every 90 minutes. For the above identification and characterization results of XPRD, TGA, DSC, and DVS, please refer to FIG. 1-82, Table 1-15 and related description.
Take about 10 mg of crystalline form XI sample for Dynamic Vapour Sorption (DVS) test. The conclusions are described in Table 23 below.
About 10 mg of amorphous form XVI sample was taken for dynamic moisture adsorption (DVS) test. The conclusions are described in Table 25 below:
Dynamic water sorption (DVS) was performed on hydrobromide and maleate crystalline samples.

A short description of data set [2]: Stability test of crystalline form XI (different temperature and humidity). The source says:
Place the sample of Form XI under high temperature, high humidity 75% RH conditions, and sample on Day 0, Day 5, Day 10 and Day 30 to investigate its content, related substances and crystal forms.

Data set [3] is described as follows: Stability testing of amorphous form XVI (60° C., 90% RH, light). The protocol:
The amorphous XVI sample was placed at 60° C., with high humidity 90% RH, under the light condition (light condition: 4500 Lux), and sampled on Day 0/5/10 to investigate its content, related substances and crystal form.

The nature of data set [4]: Competitive experiment of crystalline form X and crystalline form XI (suspension stirring, XRD). To be noted: acetone/n-heptane, dichloromethane/n-heptane, acetone/water 1/3 v:v; room temperature 1-3 days. The text has this:
Take an equal amount of crystalline form X and crystalline form XI samples, mix them uniformly, and sample for XRD detection.

Data set [5] can be described thus: Stability test for salt form screening (maleate crystalline form V; HPLC, XRD). The protocol: Weigh 30 mg of compound (maleate crystalline form V) into a 8 mL glass bottle, then place it at high temperature (60° C., open), high humidity (room temperature/75% RH, open) and light (room temperature, white light: 6980 lux, ultraviolet 282 μW/cm2), take samples on Day 5/10/30 respectively for testing (HPLC, XRD).

Setting [6] is: Day 5—light condition (4500 Lux).
Where [7] appears, read: Day 10—light condition (4500 Lux).

In the case of `CCN1C(C(=O)NC23CCC(C(=O)O)(CC2)CC3)C(c2cccc(Cl)c2F)C2(C(=O)Nc3cc(Cl)ccc32)C12CCCCC2.O` (stereo not shown) [Form XI], the “XRPD before and after DVS” value in data set [1] is recorded as “Unchanged”. In addition, the “water absorption during storage (conclusion from DVS)” value in data set [1] is reported as “not easy to absorb water”. For the same molecule, in data set [1], the “DVS weight change of 0% RH-80% RH” value was 0.17±0.05%. The “Weight Gain (80% RH)” value in data set [1] is 0.01%. Besides, the “content and purity (summary)” value in data set [2] (5 days, 10 days and 30 days, high temperature and high humidity) is “almost unchanged”. Moreover, the “Total impurity content (%)” value in data set [2] (Day 0) worked out at 0.31%; in data set [2] (Day 5—40° C.), 0.21%; in data set [2] (Day 5—60° C.), 0.15%; in data set [2] (Day 5—75% RH) it was 0.16%; in data set [2] (Day 10—40° C.) it was 0.25%; in data set [2] (Day 10—60° C.), 0.25%. For the same molecule, the “Total impurity content (%)” value in data set [2] (Day 10—75% RH) was determined as 0.24%; in data set [2] (Day 30—40° C.) it was 0.33%; in data set [2] (Day 30—75% RH), 0.32%. Also, the XPRD entry in data set [2] (Day 0), in data set [2] (Day 10—40° C.), in data set [2] (Day 10—60° C.), in data set [2] (Day 10—75% RH), in data set [2] (Day 30—40° C.) and in data set [2] (Day 30—75% RH) was “Form XI” throughout. Further, the “content (%)” value in data set [2] (Day 0) is reported as 99.5%; in data set [2] (Day 5—40° C.) it was 99.6%; in data set [2] (Day 5—60° C.), 99.1%; in data set [2] (Day 5—75% RH) it was 99.1%; in data set [2] (Day 10—40° C.), 99.1%; in data set [2] (Day 10—60° C.), 100.1%. Also, the “content (%)” value in data set [2] (Day 10—75% RH) worked out at 99.3%; in data set [2] (Day 30—40° C.), 98.9%; in data set [2] (Day 30—75% RH), 100.5%.
With `CCN1C(C(=O)NC23CCC(C(=O)O)(CC2)CC3)C(c2cccc(Cl)c2F)C2(C(=O)Nc3cc(Cl)ccc32)C12CCCCC2` (stereo not shown) [Form XVI], the “XRPD before and after DVS” value in data set [1] is given as “Unchanged”. In data set [1], the “water absorption during storage (conclusion from DVS)” value was “not easy to absorb water”. For the same molecule, the “DVS weight change of 0% RH-80% RH” value in data set [1] worked out at 2.5±0.5%. Moreover, the “Weight Gain (80% RH)” value in data set [1] is recorded as 2.32%. For the same molecule, the “Total impurity content (%)” value came to 0.38% in data set [3] (Day 0); 0.48% in data set [3] (Day 5—60° C.); 0.40% in data set [3] (Day 5—90% RH); 0.44% in data set [3] (setting [6]); 0.54% in data set [3] (Day 10—60° C.); 0.40% in data set [3] (Day 10—90% RH). Also, in data set [3] (setting [7]), the “Total impurity content (%)” value is listed as 0.57%. In addition, the XPRD result in data set [3] (Day 0), in data set [3] (Day 10—60° C.), in data set [3] (Day 10—90% RH) and in data set [3] (setting [7]) was “Amorphous” in each case. In addition, the “content (%)” value is reported as 99.4% in data set [3] (Day 0); 101.7% in data set [3] (Day 5—60° C.); 102.1% in data set [3] (Day 5—90% RH); 102.4% in data set [3] (setting [6]); 99.0% in data set [3] (Day 10—60° C.); 101.1% in data set [3] (Day 10—90% RH). Also, the “content (%)” value in data set [3] (setting [7]) came out at 100.4%.
Regarding `CCN1C(C(=O)NC23CCC(C(=O)O)(CC2)CC3)C(c2cccc(Cl)c2F)C2(C(=O)Nc3cc(Cl)ccc32)C12CCCCC2` (stereo not shown) [crystalline form X], the “DVS water absorption 0% RH-60% RH” value in data set [1] (0% RH-60% RH) is on record as less than 0.1%. In addition, the “DVS weight change 60% RH-80% RH” value in data set [1] (60% RH-80% RH) was determined as 1.6±0.2%. For the same molecule, the “form after stirring mixed sample of form X and form XI (XRD)” value in data set [4] is given as “converted to crystalline form XI”.
As to `Br.CCN1C(C(=O)NC23CCC(C(=O)O)(CC2)CC3)C(c2cccc(Cl)c2F)C2(C(=O)Nc3cc(Cl)ccc32)C12CCCCC2` (stereo not shown) [hydrobromide crystalline form VI], the “Weight Gain (80% RH)” value in data set [1] is on record as 5.1% (hygroscopic).
With `CCN1C(C(=O)NC23CCC(C(=O)O)(CC2)CC3)C(c2cccc(Cl)c2F)C2(C(=O)Nc3cc(Cl)ccc32)C12CCCCC2.O=C(O)C=CC(=O)O` (stereo not shown) [maleate crystalline form V], in data set [1], the “XRPD before and after DVS” value is recorded as “Unchanged”. Further, the “Weight Gain (80% RH)” value in data set [1] is 1.2% (slightly. For the same molecule, the “Total impurity content (%)” value in data set [5] (Day 0) came to 1.20%; in data set [5] (Day 5—60° C.) it was 1.20%; in data set [5] (Day 5—75% RH) it was 1.10%; in data set [5] (Day 5—light), 1.10%; in data set [5] (Day 10—60° C.), 1.20%; in data set [5] (Day 10—75% RH), 1.20%. Besides, the “Total impurity content (%)” value in data set [5] (Day 10—light) is recorded as 1.10%; in data set [5] (Day 30—60° C.) it was 1.20%; in data set [5] (Day 30—75% RH) it was 1.10%. Besides, the XPRD result in data set [5] (Day 0), in data set [5] (Day 5—60° C.), in data set [5] (Day 5—75% RH), in data set [5] (Day 5—light), in data set [5] (Day 10—60° C.) and in data set [5] (Day 10—75% RH) was “Form V” throughout. For the same molecule, the XPRD entry in data set [5] (Day 10—light), in data set [5] (Day 30—60° C.) and in data set [5] (Day 30—75% RH) was “Form V” in each case. Further, the “content and purity (summary)” value in data set [5] (Day 5/10/30, high temperature, high humidity and light) is listed as “almost unchanged”.
